Experimental data as given in patent US20260355165A1, “2,3,4,9-TETRAHYDRO-1H-PYRIDO[3,4-B]INDOLE DERIVATIVES AS ESTROGEN RECEPTOR MODULATORS FOR THE TREATMENT OF CANCER” (Olema Pharmaceuticals, Inc., priority 2022, published 2026).

Target: T1, estrogen receptor (Homo sapiens, UniProt P03372)
T1 construct: endogenous in cells; host or cells: ECC-1 cells
T1 sequence (P03372 1-595): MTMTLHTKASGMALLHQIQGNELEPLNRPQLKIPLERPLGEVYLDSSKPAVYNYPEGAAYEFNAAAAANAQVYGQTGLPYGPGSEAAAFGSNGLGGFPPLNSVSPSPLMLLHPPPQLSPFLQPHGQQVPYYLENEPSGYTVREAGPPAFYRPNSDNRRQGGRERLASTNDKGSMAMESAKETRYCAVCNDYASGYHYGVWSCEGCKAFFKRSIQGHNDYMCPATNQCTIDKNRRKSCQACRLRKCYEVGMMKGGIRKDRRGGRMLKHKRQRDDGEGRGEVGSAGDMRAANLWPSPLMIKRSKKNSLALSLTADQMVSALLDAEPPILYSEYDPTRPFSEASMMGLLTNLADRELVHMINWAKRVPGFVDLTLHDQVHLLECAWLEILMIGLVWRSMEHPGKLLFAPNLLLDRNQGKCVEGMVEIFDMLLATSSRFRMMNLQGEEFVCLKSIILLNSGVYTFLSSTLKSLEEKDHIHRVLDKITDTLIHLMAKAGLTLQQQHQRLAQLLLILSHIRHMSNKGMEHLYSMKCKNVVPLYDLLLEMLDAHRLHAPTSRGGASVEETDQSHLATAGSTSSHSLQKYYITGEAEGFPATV
Test: AP assay (alkaline phosphatase activity in ECC-1 cells), agonist mode (absence of E2) and antagonist mode (presence of 500 pM E2)
Type: cell-based
Details: for Activity (estrogen receptor modulation, e.g., agonism and antagonism): 3 days, AP activity normalized to 500 pM E2 alone, agonist and antagonist mode combined
Description: ECC-1 cells were trypsinized and resuspended in hormone-depleted media and plated at a density of 15 k cells per well into a 96-well plate for at least 4 hours. Cells were treated with test compounds in the absence of E2 (for agonist mode) or in the presence of 500 pM E2 (for antagonist mode) for 3 days and plates were subsequently frozen at −80 °C. Thawed plates were incubated with a chromogenic substrate of AP, p-nitrophenyl phosphate (Thermo Fisher Scientific), for 40 minutes at 42 °C, and absorbances were read at 405 nm. AP activity was normalized to the activity of 500 pM E2 alone.
The compound numbers correspond to the compound numbers of Table 1 and 2. Compounds having an activity designated as “+” provided estrogen receptor agonism having (i) at least 80% increase in the E2-normalized signal in the AP assay (agonist mode) and (ii) no more than 80% reduction in the E2-normalized signal in the AP assay (antagonist mode). Compounds having an activity designated as “++” provided estrogen receptor antagonism having (i) between 10% and 80% increase in the E2-normalized signal in the AP assay (agonist mode) and (ii) between 10% and 80% reduction in the E2-normalized signal in the AP assay (antagonist mode).

C[C@@H]1Cc2c([nH]c3ccccc23)[C@@H](c2ccc3[nH]c(CN4CC(CF)C4)cc3c2)N1CC(F)(F)C(F)F [Compound I-109, (1R,3R)-1-[2-[[3-(fluoromethyl)azetidin-1-yl]methyl]-1H-indol-5-yl]-3-methyl-2-(2,2,3,3-tetrafluoropropyl)-1,3,4,9-tetrahydropyrido[3,4-b]indole]
IC50 (AP assay, antagonist mode, 500 pM E2, 3 days): < 398 nM | increase in E2-normalized signal in the AP assay (agonist mode) (agonist mode, absence of E2, 3 days): no more than 10% | reduction in the E2-normalized signal in the AP assay (antagonist mode) (antagonist mode, 500 pM E2, 3 days): ≥ 10%

C[C@@H]1Cc2c([nH]c3ccccc23)[C@@H](c2ccc3[nH]c(CN4CC(F)C4)cc3c2)N1CC(C)(C)F [Compound I-90, (1R,3R)-1-[2-[(3-fluoroazetidin-1-yl)methyl]-1H-indol-5-yl]-2-(2-fluoro-2-methyl-propyl)-3-methyl-1,3,4,9-tetrahydropyrido[3,4-b]indole]
Activity (estrogen receptor modulation, e.g., agonism and antagonism): + (estrogen receptor agonism having (i) at least 80% increase in the E2-normalized signal in the AP assay (agonist mode) and (ii) no more than 80% reduction in the E2-normalized signal in the AP assay (antagonist mode))

C[C@@H]1Cc2c([nH]c3ccccc23)[C@@H](c2cc3ccc(CN4CC(CF)C4)cc3[nH]2)N1CC(C)(C)F [Compound I-56, (1R,3R)-1-[6-[[3-(fluoromethyl)azetidin-1-yl]methyl]-1H-indol-2-yl]-2-(2-fluoro-2-methyl-propyl)-3-methyl-1,3,4,9-tetrahydropyrido[3,4-b]indole]
Activity (estrogen receptor modulation, e.g., agonism and antagonism): + (estrogen receptor agonism having (i) at least 80% increase in the E2-normalized signal in the AP assay (agonist mode) and (ii) no more than 80% reduction in the E2-normalized signal in the AP assay (antagonist mode))

C[C@@H]1Cc2c([nH]c3ccccc23)[C@@H](c2c[nH]c3cc(C(=O)O)ccc23)N1CC(C)(C)F [Compound I-3, 3-[(1R,3R)-2-(2-fluoro-2-methyl-propyl)-3-methyl-1,3,4,9-tetrahydropyrido[3,4-b]indol-1-yl]-1H-indole-6-carboxylic acid]
Activity (estrogen receptor modulation, e.g., agonism and antagonism): + (estrogen receptor agonism having (i) at least 80% increase in the E2-normalized signal in the AP assay (agonist mode) and (ii) no more than 80% reduction in the E2-normalized signal in the AP assay (antagonist mode))

C[C@@H]1Cc2c([nH]c3ccccc23)[C@@H](c2ccc3[nH]c(CN4CC(C)(C)C4)cc3c2)N1CC(C)(C)F [Compound I-92, (1R,3R)-1-[2-[(3,3-dimethylazetidin-1-yl)methyl]-1H-indol-5-yl]-2-(2-fluoro-2-methyl-propyl)-3-methyl-1,3,4,9-tetrahydropyrido[3,4-b]indole]
Activity (estrogen receptor modulation, e.g., agonism and antagonism): + (estrogen receptor agonism having (i) at least 80% increase in the E2-normalized signal in the AP assay (agonist mode) and (ii) no more than 80% reduction in the E2-normalized signal in the AP assay (antagonist mode))

C[C@@H]1Cc2c([nH]c3ccccc23)[C@@H](c2ccc3[nH]c(CN4CC5(CC(O)C5)C4)cc3c2)N1CC(C)(C)F [Compound I-53, 2-[[5-[(1R,3R)-2-(2-fluoro-2-methyl-propyl)-3-methyl-1,3,4,9-tetrahydropyrido[3,4-b]indol-1-yl]-1H-indol-2-yl]methyl]-2-azaspiro[3.3]heptan-6-ol]
Activity (estrogen receptor modulation, e.g., agonism and antagonism): + (estrogen receptor agonism having (i) at least 80% increase in the E2-normalized signal in the AP assay (agonist mode) and (ii) no more than 80% reduction in the E2-normalized signal in the AP assay (antagonist mode))

CC1CN(Cc2ccc3c([C@@H]4c5[nH]c6ccccc6c5C[C@@H](C)N4CC(C)(C)F)n[nH]c3c2)C1 [Compound I-11, (1S,3R)-2-(2-fluoro-2-methyl-propyl)-3-methyl-1-[6-[(3-methylazetidin-1-yl)methyl]-1H-indazol-3-yl]-1,3,4,9-tetrahydropyrido[3,4-b]indole]
Activity (estrogen receptor modulation, e.g., agonism and antagonism): ++ (estrogen receptor antagonism having (i) between 10% and 80% increase in the E2-normalized signal in the AP assay (agonist mode) and (ii) between 10% and 80% reduction in the E2-normalized signal in the AP assay (antagonist mode))
